Converted amounts (≈) assume the structure as drawn. Read-outs that look alike come from different tables or passages of the source.
Columns and labels:
[1] = biological target: T1, bacterial DHFR (bDHFR) (Escherichia coli, UniProt P0ABQ4); test: DHFR enzyme assay, Ki determination, bacterial DHFR; format: biochemical, E. coli
T1 construct: gift of Eric Brown, McMaster University
Description: Human and Bacterial DHFR: E. coli DHFR was kindly provided by Eric Brown of MacMaster University.
(§1) Dihydrofolic acid and NADPH were purchased from Sigma. Enzyme assays were adapted for microtitre format from a previously published procedure (2, 3). All assays were performed in a 250 μl volume in 96-well microtitre plates. Typical assays consisted of 20 nM DHFR (human or E. coli), 100 μM NADPH, and 50 μM dihydrofolic acid in 100 mM HEPES pH 8, 10 mM KCl, and 10 mM MgCl2. The assay was monitored spectrophotometrically for the conversion of NADPH to NADP+, which results in a decrease in absorbance at 340 nm.
The reaction was initiated by the addition of 125 μl of 100 μM dihydrofolic acid. The final concentrations in the assay were 20 nM DHFR, 100 μM NADPH, 50 μM dihydrofolic acid, and a range of 500 μM to 20 nM inhibitor compound. The final DMSO concentration was 2% of the total volume. Reactions were monitored as described above.

[2] = tested on: S. aureus; test: S. aureus mouse septicaemia model; format: in vivo; details: administered orally; mouse protection model
Description: Systemic models of infection are described in the literature. The following conditions can be used to assay the compounds in this application. Bacteria are grown in Mueller-Hinton agar at 37° C. during 24 h. For each experiment, a bacterial suspension is prepared by inoculating 4-5 bacterial colonies onto Mueller-Hinton broth (MHB) and by incubating at 37° C. for 24 hours to yield approximately 10^9 CFU/ml. BalbC female mice are supplied by Charles River (Deutschland). Animals are infected by a single administration of an LD100 dose of bacterial culture suspension (1×10^8 CFU/100 μl per animal) in the tail vein. A careful clinical examination is made several times a day, and obvious clinical symptoms and mortality are recorded. Animals survival is observed for a period of 6 days. Azithromycin is dissolved in 0.5% methocel in saline solution and administered orally. Test compounds are micronized with mortar and pestle and then dissolved in methocel saline solution with 3% of DMF. The first dose is administered 30 minutes after infection, with following doses every 12 hours for 3 days.
In vivo Efficacy Testing—S. aureus Mouse Septicaemia Model.
Several compounds were tested in a S. aureus mouse protection models for efficacy. Two compounds, 25 and 62, protected 40% of treated animals from the lethal infection when administered orally.

[3] = biological target: T2, human DHFR (hDHFR) (Homo sapiens, UniProt P00374); test: DHFR enzyme assay, Ki determination, human DHFR; format: biochemical; details: Table 3
T2 construct: result in the amplification of a 186 amino acid hDHFR coding region; made in house; host or cells: E. coli Top10
T2 sequence (P00374 1-187): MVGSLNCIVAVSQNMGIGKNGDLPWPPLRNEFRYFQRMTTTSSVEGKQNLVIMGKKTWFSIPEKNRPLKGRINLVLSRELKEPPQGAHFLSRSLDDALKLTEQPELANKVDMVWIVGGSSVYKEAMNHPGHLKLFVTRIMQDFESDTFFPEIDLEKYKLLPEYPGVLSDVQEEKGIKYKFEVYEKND
Description: The human DHFR cDNA was cloned by PCR from the Human Universal Quick-clone™ cDNA purchased from Clontech.
The PCR fragment was digested with restriction enzymes NdeI and HindIII, and then ligated into a derivative of the pKK223-3 expression vector (Amersham Pharmacia). The final expression vector (pFW96.2) was transformed into E. coli Top10 F40 and hDHFR protein was induced by the addition of 1 mM IPTG followed by incubation at 37° C. for 4 hrs. Recombinant human DHFR was purified based on a previously published procedure (2).
as §1
Five microliters of inhibitor compound in DMSO was added to 120 μl of enzyme solution (40 nM DHFR and 200 μM NADPH). The reaction was initiated by the addition of 125 μl of 100 μM dihydrofolic acid. The final concentrations in the assay were 20 nM DHFR, 100 μM NADPH, 50 μM dihydrofolic acid, and a range of 500 μM to 20 nM inhibitor compound. The final DMSO concentration was 2% of the total volume. Reactions were monitored as described above.
V=(Vmax[S])/(Km(1+I/Ki)+[S]), where S=dihydrofolate, Km=Michaelis constant for dihydrofolate, I=inhibitor concentration.

[4] = tested on: E. coli; test: Microdilution antimicrobial susceptibility test (MIC); format: cell-based; details: Escherichia coli; Table 2; 90% inhibition of growth
Description: (§2) Stock solutions of tested compounds were prepared in N,N-dimethylformamide (DMF) at a concentration of 5 mg/mL. Working solutions of the tested compounds were then prepared from the stock solutions, in Mueller-Hinton broth (MHB) with a starting concentration of 64 μg/mL.
(§3) Bacterial inocula were prepared from overnight culture (i.e., one fresh colony from agar plate in 5 ml MHB; H. influenzae was grown in MHB with the addition of yeast extract, haematin, and NAD), centrifuged 2×5 min/3000 rpm (for S. pneumoniae and H. influenzae, 2×10 min/3000 rpm), and dispensed in 5 ml of fresh MHB each time, such that the bacterial suspension is diluted to obtain 100 colony forming units (cfu) in a microplate well (100 μl total volume).
(§4) Microplate wells were filled with two-fold dilutions of test compound (50 μl), starting with 64 μg/ml. Wells were then filled with 50 μl of bacterial inoculum (final volume: 100 μl/well). The plates were incubated at 37° C. for 18-24 hours (S. pneumoniae was grown in a CO2-enriched atmosphere).

[5] = tested on: E. faecalis; test: as above; format: cell-based; details: Enterococcus faecalis; Table 2; 90% inhibition of growth
Description: as §2, §3, §4

[6] = tested on: H. influenzae; test: as above; format: cell-based; details: Haemophilus influenzae, read-out: MIC H. influenzae
Description: as §2, §3, §4

[7] = tested on: M. catarrhalis; test: as above; format: cell-based; details: Moraxella catarrhalis; Table 2; 90% inhibition of growth
Description: as §2, §3, §4

[8] = tested on: P. aeruginosa; test: as above; format: cell-based; details: Pseudomonas aeruginosa; Table 2; 90% inhibition of growth
Description: as §2, §3, §4

[9] = tested on: S. aureus; test: as above; format: cell-based; details: Staphylococcus aureus
Description: as §2, §3, §4

[10] = tested on: S. pneumoniae; test: as above; format: cell-based; details: Streptococcus pneumoniae; Table 2; 90% inhibition of growth
Description: as §2, §3, §4

[11] = tested on: S. cerevisiae; test: Microdilution susceptibility test (MIC), yeast as indicator of cytotoxicity; format: cell-based; details: Saccharomyces cerevisiae; Table 2; 90% inhibition of growth
Description: The following table of compounds of one aspect of the invention have potent antimicrobial activity against S. aureus bacteria and are anticipated to have physical-chemical properties similar to those of orally absorbed and bioavailable drugs and drug-like compounds. Antibacterial activity for a variety of bacterial species are shown (S. aureus, S. pneumoniae, E. faecalis, M. catarrhalis, and H. influenzae). The yeast cell (S. cerevisiae) in this panel of organisms is an indicator of potential cytotoxicity in mammalian cells.
as §2, §4

[12] = second part of table, read-out: bDHFR
[13] = Table 2, 90% inhibition of growth
[14] = Table 2, 90% inhibition of growth, read-out: MIC S. aureus

| SMILES | Ki [1, 12] [µM] | treated animals protected from the lethal infection [2] [%] | Ki ([1]; Table 3, read-out: bDHFR Ki) [µM] | Ki [3] [µM] | MIC [4] [µg/mL] | MIC [5] [µg/mL] | MIC [6, 13] [µg/mL] | MIC [7] [µg/mL] | MIC [8] [µg/mL] | MIC [9, 14] [µg/mL] | MIC [10] [µg/mL] | MIC [11] [µg/mL] | MIC [6] [µg/mL] | Ki ([1]; average, read-out: bDHFR Ki/(μM) avg) [µM] | MIC ([9]; MIC, average, read-out: S. aureus (μg/ml) avg) [µg/mL] |
| --- | --- | --- | --- | --- | --- | --- | --- | --- | --- | --- | --- | --- | --- | --- | --- |
| Cc1ccc(C(C)N(C)c2ncc3c(N)nc(N)nc3n2)c2ccccc12 (centres unmarked) [Compound 62] | 0.802 | 40 | – | – | – | – | – | – | – | – | – | – | – | – | – |
| Nc1nc(N)c2nc(CNc3ccc4c(c3)OCO4)cnc2n1 [Compound 8] | – | – | 1 to 5 | > 5 | > 64 | 2 to 8 (≈ 6.42 to 25.7 µM) | 2 to 8 (≈ 6.42 to 25.7 µM) | 2 to 8 (≈ 6.42 to 25.7 µM) | > 64 | 2 to 8 (≈ 6.42 to 25.7 µM) | 2 to 8 (≈ 6.42 to 25.7 µM) | > 64 | – | – | – |
| CN(Cc1cnc2nc(N)nc(N)c2n1)c1ccc(C(=O)NCc2cccnc2)cc1 [Compound 4] | – | – | < 0.1 | 0.5 to 0.999 | > 64 | 2 to 8 (≈ 4.81 to 19.3 µM) | 2 to 8 (≈ 4.81 to 19.3 µM) | 16 to 64 (≈ 38.5 to 154 µM) | > 64 | 16 to 64 (≈ 38.5 to 154 µM) | 2 to 8 (≈ 4.81 to 19.3 µM) | > 64 | – | – | – |
| CN(Cc1cnc2nc(N)nc(N)c2n1)c1ccccc1 [Compound 9] | – | – | 0.1 to 0.499 | > 5 | > 64 | < 2 | < 2 | 2 to 8 (≈ 7.11 to 28.4 µM) | > 64 | 2 to 8 (≈ 7.11 to 28.4 µM) | < 2 | > 64 | – | – | – |
| Nc1nc(N)c2nc(CNc3cc(Cl)cc(Cl)c3)cnc2n1 [Compound 11] | – | – | 0.5 to 0.999 | > 5 | > 64 | < 2 | – | < 2 | > 64 | < 2 | < 2 | > 64 | > 64 | – | – |
| Nc1nc(N)c2nc(CNc3ccc4nc(S)sc4c3)cnc2n1 [Compound 10] | – | – | 0.1 to 0.499 | > 5 | > 64 | < 2 | 16 to 64 (≈ 44.9 to 180 µM) | < 2 | > 64 | 2 to 8 (≈ 5.61 to 22.4 µM) | 2 to 8 (≈ 5.61 to 22.4 µM) | 16 to 64 (≈ 44.9 to 180 µM) | – | – | – |
| CC(c1csc2ccccc12)N(C)c1ncc2c(N)nc(N)nc2n1 (centres unmarked) [Compound 25] | < 0.004 | 40 | – | – | – | – | – | – | – | – | – | – | – | 0.004 | 0.25 (≈ 0.711 µM) |
| CN(Cc1cnc2nc(N)nc(N)c2n1)c1ccc(C(=O)NCc2ccccn2)cc1 [Compound 3] | – | – | < 0.1 | 1 to 5 | > 64 | 2 to 8 (≈ 4.81 to 19.3 µM) | 2 to 8 (≈ 4.81 to 19.3 µM) | 2 to 8 (≈ 4.81 to 19.3 µM) | > 64 | 2 to 8 (≈ 4.81 to 19.3 µM) | 2 to 8 (≈ 4.81 to 19.3 µM) | > 64 | – | – | – |
| Nc1nc(N)c2nc(CNc3ccc(F)c([N+](=O)[O-])c3)cnc2n1 [Compound 15] | – | – | 0.1 to 0.499 | > 5 | > 64 | < 2 | < 2 | < 2 | > 64 | < 2 | < 2 | 2 to 8 (≈ 6.06 to 24.2 µM) | – | – | – |
| CN(Cc1cnc2nc(N)nc(N)c2n1)c1cccc([N+](=O)[O-])c1 [Compound 14] | – | – | < 0.1 | > 5 | > 64 | < 2 | < 2 | < 2 | > 64 | < 2 | < 2 | > 64 | – | – | – |

From US20030176436A1, “Novel heterocyclic compounds as selective bacterial DHFR inhibitors and their uses thereof” (priority 2001, published 2003)
